Laboratory results reported in patent US8343934B2, “Diverse lead compound autotaxin inhibitors” (University of Memphis, priority 2009, dated 2013).

Target: T1, ATX (Homo sapiens, UniProt Q13822)
T1 construct: conditioned serum-free medium (CCM) from MDA-MB-435 cells as the source of ATX; endogenous in cells; host or cells: MDA-MB-435 cells (about 10x concentrated conditioned serum-free medium)
Test: ATX inhibition assay (FS-3 substrate)
Type: biochemical
Conditions: for % ATX Acitivity (10 μM): 10 μM compound; for % ATX Acitivity (10 μM) / IC50: FS-3 substrate; for % Response: preliminary screen, FS-3 hydrolysis at one hour, normalized to vehicle control, mean±S.D., same values given at 10 μM in Table 5
Description: ATX inhibition was assayed using the substrate FS-3 (Echelon Biosciences, Inc., Salt Lake City, Utah, USA). The FS-3 assay used ˜10 times concentrated conditioned serum-free medium (CCM) from MDA-MB-435 cells as the source of ATX, while CCM comprised one-third of the total volume. The final volume for FS-3 was comprised of the substrate at varying concentrations and 30 μM charcoal-stripped fatty acid free BSA (Sigma Aldrich) in assay buffer (1 mM each CaCl2 and MgCl2, 5 mM KCl, 140 mM NaCl, 50 mM Tris pH 8.0).
All assays were performed in 96-well plates with data read at 1 minute intervals by a Synergy2 system (BioTek, Winooski, Vt.). The fluorescence produced upon the hydrolysis of FS-3 was monitored using an excitation wavelength of 485 nm and an emission wavelength of 528 nm at 37° C. (Ferguson et al., 2006). […] All readings were normalized to vehicle control after subtraction of fluorescence in the absence of CCM. Data are shown as the mean±S.D. of at least three wells.

[1] = Calculated IC50 data for the 30 active compounds

| % Response [%] | SMILES | further results |
| --- | --- | --- |
| 52 ± 7.7 | CCOc1ccc(N=c2ccc3c(-c4c(Cl)ccc(Cl)c4C(=O)O)c4ccc(Nc5ccc(OCC)cc5S(=O)(=O)O)cc4oc-3c2)cc1.[Na+] [compound 8682] |  |
| 73 ± 3.7 | O=C(O)c1ccccc1-c1c2ccc(=Nc3ccccc3)cc-2oc2cc(Nc3ccc(S(=O)(=O)O)cc3)ccc12.[Na+] [compound 11242] |  |
| 49 ± 6.1 | Nc1c(S(=O)(=O)[O-])cc2cc(S(=O)(=O)[O-])ccc2c1N=Nc1ccc(-c2ccc(N=Nc3c(N)c(S(=O)(=O)[O-])cc4cc(S(=O)(=O)[O-])ccc34)c(S(=O)(=O)[O-])c2)cc1.[Na+].[Na+].[Na+].[Na+].[Na+] [compound 11243] | IC50 [1]: 12600 nM |
| 78 ± 7.0 | Nc1ccc2cc(S(=O)(=O)O)cc(O)c2c1N=Nc1ccc(NC(=O)Nc2ccc(N=Nc3c(N)ccc4cc(S(=O)(=O)O)cc(O)c34)c(S(=O)(=O)O)c2)cc1S(=O)(=O)O [compound 11244] |  |
| 42 ± 6.0 | Cc1cc(S(=O)(=O)O)ccc1N=c1ccc2c(-c3ccccc3C(=O)[O-])c3ccc(Nc4ccccc4C)cc3oc-2c1.[Na+] [compound 11246] | IC50 [1]: 10200 nM |
| 57 ± 6.5 | O=C(Nc1ccc(S(=O)(=O)c2ccc(NC(=O)Nc3ccc4cc(S(=O)(=O)O)ccc4c3)cc2)cc1)Nc1ccc2cc(S(=O)(=O)O)ccc2c1.[Na+] [compound 12149] |  |
| 105 ± 8.0 | O=C(Nc1ccc(C(=O)Nc2cc(S(=O)(=O)O)cc3cccc(S(=O)(=O)O)c23)cc1)Nc1ccc(C(=O)Nc2cc(S(=O)(=O)O)cc3cccc(S(=O)(=O)O)c23)cc1.[Na+] [compound 12188] |  |
| 71 ± 5.4 | O=C(Nc1cccc(C(=O)Nc2ccc3cc(S(=O)(=O)O)cc(S(=O)(=O)O)c3c2)c1)Nc1cccc(C(=O)Nc2ccc3cc(S(=O)(=O)O)cc(S(=O)(=O)O)c3c2)c1.[Na+] [compound 12856] |  |
| 100 ± 7.3 | O=C(Nc1ccc2cc(S(=O)(=O)O)cc(S(=O)(=O)O)c2c1)Nc1ccc2cc(S(=O)(=O)O)cc(S(=O)(=O)O)c2c1.[Na+] [compound 12857] |  |
| 98 ± 7.4 | COc1ccc(C(=O)Nc2ccc(/C=C/c3ccc(NC(=O)c4ccc(OC)cc4)cc3S(=O)(=O)O)c(S(=O)(=O)O)c2)cc1.[Na+] [compound 12858] |  |
| 27 ± 2.8 | O=C1C(Cl)=C(Nc2ccc(C(=O)Nc3ccc4cc(S(=O)(=O)O)cc(S(=O)(=O)O)c4c3)cc2)C(=O)C(Cl)=C1Nc1ccc(C(=O)Nc2ccc3cc(S(=O)(=O)O)cc(S(=O)(=O)O)c3c2)cc1.[Na+] [compound 12859] | IC50 [1]: 805 nM |
| 101 ± 9.0 | NS(=O)(=O)c1ccc(N=NNc2ccc(C(=O)O)cc2)cc1.[Na+] [compound 13232] |  |
| 77 ± 9.8 | O=C(Nc1ccc2c(O)c(N=Nc3ccccc3)c(S(=O)(=O)[O-])cc2c1)Nc1ccc2c(O)c(N=Nc3ccccc3)c(S(=O)(=O)[O-])cc2c1.[Na+].[Na+] [compound 16223] |  |

Further lines, the molecule ahead of its results:

| SMILES | % Response [%] | further results |
| --- | --- | --- |
| Cc1cc(C(O)(c2ccc(Nc3ccccc3)cc2)c2ccc(Nc3ccc(S(=O)(=O)O)cc3)cc2)ccc1N (stereo not shown) [NSC 5014] |  | % ATX Acitivity (10 μM): 39 ± 4.3%; IC50 (Table 5): 1270 nM |
| O=C1C(Cl)=C(Nc2ccc(C(=O)Nc3ccc4cc(S(=O)(=O)O)cc(S(=O)(=O)O)c4c3)cc2)C(=O)C(Cl)=C1Nc1ccc(C(=O)Nc2ccc3cc(S(=O)(=O)O)cc(S(=O)(=O)O)c3c2)cc1 [NSC 12859] |  | % ATX Acitivity (10 μM): 27 ± 2.8%; IC50 (Table 5): 805 nM |
| Nc1ccc2cc(S(=O)(=O)O)c(/N=N/c3ccc(-c4ccc(/N=N/c5c(S(=O)(=O)O)cc6cc(S(=O)(=O)O)cc(N)c6c5O)cc4)cc3)c(O)c2c1 [NSC 75779] |  | % ATX Acitivity (10 μM): 20 ± 5.7%; IC50 (Table 5): 1260 nM |
| Nc1ccc(/N=N/c2ccc(-c3ccc(/N=N/c4c(S(=O)(=O)O)cc5cc(S(=O)(=O)O)c(/N=N/c6ccc([N+](=O)[O-])cc6)c(N)c5c4O)cc3)cc2)c2ccc(S(=O)(=O)O)cc12 [NSC 77520] |  | % ATX Acitivity (10 μM): 32 ± 2.7%; IC50: 4070 nM |
| CC(C)(C)OC(=O)NC(CC(Cc1ccccc1)C(=O)O)C(=O)NC(CC(Cc1ccccc1)C(=O)O)C(=O)NC(CC(Cc1ccccc1)C(=O)O)C(=O)NCC(=O)Oc1ccc([N+](=O)[O-])cc1 (stereo not shown) [NSC 341348] |  | % ATX Acitivity (10 μM): 43 ± 2.8%; IC50: 2500 nM |
| O=S(=O)(O)c1cc(O)c2ccc(Nc3ccc4c(O)cc(S(=O)(=O)O)cc4c3)cc2c1 [compound 1698] | 89 ± 5.1 |  |
| Nc1ccc(C(=O)Nc2ccc(C(=O)Nc3ccc4c(O)cc(S(=O)(=O)O)cc4c3)cc2)cc1 [compound 1741] | 60 ± 4.6 |  |
| O=C(CC(C(=O)O)S(=O)(=O)O)Nc1ccc(S(=O)(=O)c2ccc(NC(=O)CC(C(=O)O)S(=O)(=O)O)cc2)cc1.[Na+] (stereo not shown) [compound 2460] | 99 ± 3.1 |  |
| O=C(NC(CSSCC(NC(=O)c1ccc([N+](=O)[O-])cc1)C(=O)O)C(=O)O)c1ccc([N+](=O)[O-])cc1 (stereo not shown) [compound 2532] | 95 ± 5.7 |  |
| CC(=O)NS(=O)(=O)c1ccc(NC(=O)c2ccccc2C(=O)O)cc1 [compound 4368] | 99 ± 2.8 |  |
| Cc1c(N)cc(S(=O)(=O)O)cc1NC(=O)c1cccc([N+](=O)[O-])c1 [compound 5000] | 100 ± 5.5 |  |
| Cc1cc(C(O)(c2ccc(Nc3ccccc3)cc2)c2ccc(Nc3ccc(S(=O)(=O)O)cc3)cc2)ccc1N.[Na+] (stereo not shown) [compound 5014] | 39 ± 4.3 | IC50 [1]: 1270 nM |
| O=C(O)c1ccccc1N=N/C(=N\Nc1cc(S(=O)(=O)O)ccc1O)c1ccccc1 [compound 5359] | 94 ± 2.6 |  |
| Nc1c(N=Nc2ccc([N+](=O)[O-])cc2)c(S(=O)(=O)O)cc2cc(S(=O)(=O)O)c(N=Nc3ccc(-c4ccc(N=Nc5ccc(O)cc5)cc4)cc3)c(O)c12.[Na+] [compound 7234] | 49 ± 6.1 | IC50 [1]: 7020 nM |
| O=C(O)c1ccc2c(c1Nc1ccc(-c3ccc(Nc4c(C(=O)O)ccc5c4C(=O)c4ccccc4C5=O)cc3)cc1)C(=O)c1ccccc1C2=O [compound 7581] | 70 ± 4.8 |  |
| Cc1ccc(Nc2ccc(Nc3ccc(C)cc3S(=O)(=O)[O-])c3c2C(=O)c2ccccc2C3=O)c(S(=O)(=O)[O-])c1.[Na+].[Na+] [compound 7795] | 99 ± 5.0 |  |
| Cc1ccc(Nc2cccc3c2C(=O)c2cccc(Nc4ccc(C)c(S(=O)(=O)O)c4)c2C3=O)cc1S(=O)(=O)O [compound 7804] | 96 ± 6.4 |  |
| Cc1cc(-c2ccc(N=Nc3c(N)c(S(=O)(=O)O)cc4cc(S(=O)(=O)O)ccc34)c(C)c2)ccc1N=Nc1cc(S(=O)(=O)O)c2ccccc2c1N [compound 7815] | 32 ± 5.5 | IC50 [1]: 13400 nM |
| Nc1c(N=Nc2ccc([N+](=O)[O-])cc2)c(S(=O)(=O)O)cc2cc(S(=O)(=O)O)c(N=Nc3ccccc3)c(O)c12 [compound 7820] | 110 ± 5.7 |  |
| O=C1C(c2[nH]c3ccc(S(=O)(=O)O)cc3c2O)=Nc2ccc(S(=O)(=O)O)cc21 [compound 8646] | 88 ± 9.2 |  |
| Nc1c(N=Nc2ccc([N+](=O)[O-])cc2)c(S(=O)(=O)[O-])cc2cc(S(=O)(=O)[O-])c(N=Nc3ccc(-c4ccc(N=Nc5ccc(O)c(C(=O)[O-])c5)cc4)cc3)c(O)c12.[Na+].[Na+].[Na+] [compound 8681] | 55 ± 5.5 |  |
| O=C(Nc1cc[c]([Sb](=[O])([OH])[OH])cc1)Nc1cc[c]([Sb](=[O])([OH])[OH])cc1 [compound 15408] | 100 ± 7.9 |  |
